Test results from patent publication EP0072987A1 (priority 1981, dated 1983).
Where “and” joins values, the source holds several entries; their conditions need not be identical. Equal entries are not always repeated.

Test system: Tumorart PS 2684
Parameters: species or system Mäusen
Settings: in vivo

Compound	T/C-Wert
O=P1(N(CC2CO2)CC2CO2)OCCCN1CC1CO1 (centres unmarked) [Beispiel 1, 2H-1,3,2-Oxazaphosphorin, 2-(bis-glycidyl)aminotetrahydro-2-oxid-3-glycidyl-]	158 and 132
CN(CC1CO1)P1(=O)OCCCN1CC(Cl)CO (centres unmarked) [Beispiel 2, 2H-1,3,2-Oxazaphosphorin, 2-(glycidyl-methyl)amino-2-oxid-3-(3-hydroxy-2-chloro)-propyl- . tetrahvdro -]	158 and 134
